Assay results as given in PubChem BioAssay AID248 (DTP/NCI, 2004).
Where “and” joins values, the source holds several entries; their conditions need not be identical. Identical values can stand only once. Inconclusive results and toxic doses are left out. Rule as the data show it: active = T/C of 150% or more; inactive = T/C below 125%.

System: L1210 leukemia ip in BDF1 mice, survival T/C
Assay: NCI In Vivo Anticancer Drug Screen. Data for tumor model L1210 Leukemia (intraperitoneal) in B6D2F1 (BDF1) mice
Settings: endpoint: mean survival time, higher = longer survival
Method in brief: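 Ratio derived from survival: compound-dosed mice over vehicle-dosed mice, all bearing a transplantable tumor.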

[1] = dose: 100.0 mg/kg/injection, schedule: Q01DX001 (ip), vehicle: Klucel (hydroxypropylcellulose) (HPC)
[2] = dose: 100.0 mg/kg/injection, schedule: Q01DX009 (ip), vehicle: saline with Tween-80
[3] = dose: 100.0 mg/kg/injection, schedule: Q04DX003 (ip), vehicle: Klucel (hydroxypropylcellulose) (HPC)
[4] = dose: 100.0 mg/kg/injection, schedule: Q04DX003 (ip), vehicle: saline with Tween-80
[5] = dose: 200.0 mg/kg/injection, schedule: Q01DX001 (ip), vehicle: Klucel (hydroxypropylcellulose) (HPC)
[6] = dose: 200.0 mg/kg/injection, schedule: Q04DX003 (ip), vehicle: Klucel (hydroxypropylcellulose) (HPC)
[7] = dose: 400.0 mg/kg/injection, schedule: Q01DX001 (ip), vehicle: Klucel (hydroxypropylcellulose) (HPC)
[8] = dose: 400.0 mg/kg/injection, schedule: Q04DX003 (ip), vehicle: Klucel (hydroxypropylcellulose) (HPC)
[9] = dose: 200.0 mg/kg/injection, schedule: Q01DX009 (ip), vehicle: saline with Tween-80
[10] = dose: 400.0 mg/kg/injection, schedule: Q01DX009 (ip), vehicle: saline with Tween-80
[11] = dose: 25.0 mg/kg/injection, schedule: Q01DX009 (ip), vehicle: Klucel (hydroxypropylcellulose) (HPC)
[12] = dose: 50.0 mg/kg/injection, schedule: Q01DX009 (ip), vehicle: Klucel (hydroxypropylcellulose) (HPC)
[13] = dose: 100.0 mg/kg/injection, schedule: Q01DX009 (ip), vehicle: Klucel (hydroxypropylcellulose) (HPC)
[14] = dose: 50.0 mg/kg/injection, schedule: Q01DX001 (ip), vehicle: saline
[15] = dose: 100.0 mg/kg/injection, schedule: Q01DX001 (ip), vehicle: saline
[16] = dose: 200.0 mg/kg/injection, schedule: Q01DX001 (ip), vehicle: saline
[17] = dose: 400.0 mg/kg/injection, schedule: Q01DX001 (ip), vehicle: saline

Measured: T/C

CC(C)C1CCC(NC(=O)Nc2ccccc2)CC1 (stereo not drawn)
inactive: dose: 25.0 mg/kg/injection, schedule: Q01DX009 (ip), vehicle: saline with Tween-80 93 % of control | dose: 25.0 mg/kg/injection, schedule: Q04DX003 (ip), vehicle: saline with Tween-80 97 % of control | dose: 50.0 mg/kg/injection, schedule: Q01DX009 (ip), vehicle: saline with Tween-80 95 % of control | dose: 50.0 mg/kg/injection, schedule: Q04DX003 (ip), vehicle: saline with Tween-80 101 % of control | [1] 111 % of control | [2] 88 % of control | [3] 94 % of control | [4] 100 % of control and 106 % of control | [5] 101 % of control | [6] 101 % of control | [7] 103 % of control | [8] 94 % of control

CCCCCc1nc2c(c3c1CCCC3)CCCC2
inactive: dose: 75.0 mg/kg/injection, schedule: Q01DX001 (ip), vehicle: other 102 % of control | dose: 150.0 mg/kg/injection, schedule: Q01DX001 (ip), vehicle: other 96 % of control

CC1SCC(=O)CS1
inactive: [1] 93 % of control | [3] 91 % of control | [5] 96 % of control | [6] 94 % of control | [7] 96 % of control | [8] 97 % of control

CC(=O)NS(=O)(=O)c1ccc(N)cc1
inactive: [2] 94 % of control | [4] 98 % of control | [9] 94 % of control | dose: 200.0 mg/kg/injection, schedule: Q04DX003 (ip), vehicle: saline with Tween-80 98 % of control | [10] 95 % of control | dose: 400.0 mg/kg/injection, schedule: Q04DX003 (ip), vehicle: saline with Tween-80 100 % of control

CC(CN(C)C)C(=O)c1ccccc1 (stereo not drawn)
inactive: [11] 106 % of control | dose: 25.0 mg/kg/injection, schedule: Q01DX009 (ip), vehicle: saline 105 % of control and 104 % of control | dose: 25.0 mg/kg/injection, schedule: Q04DX002 (ip), vehicle: saline 104 % of control | dose: 25.0 mg/kg/injection, schedule: Q04DX003 (ip), vehicle: Klucel (hydroxypropylcellulose) (HPC) 91 % of control | dose: 25.0 mg/kg/injection, schedule: Q04DX003 (ip), vehicle: saline 98 % of control | [12] 101 % of control | dose: 50.0 mg/kg/injection, schedule: Q01DX009 (ip), vehicle: saline 110 % of control and 100 % of control | dose: 50.0 mg/kg/injection, schedule: Q04DX002 (ip), vehicle: saline 96 % of control | dose: 50.0 mg/kg/injection, schedule: Q04DX003 (ip), vehicle: Klucel (hydroxypropylcellulose) (HPC) 100 % of control | dose: 50.0 mg/kg/injection, schedule: Q04DX003 (ip), vehicle: saline 88 % of control | [13] 108 % of control | dose: 100.0 mg/kg/injection, schedule: Q01DX009 (ip), vehicle: saline 102 % of control and 96 % of control | dose: 100.0 mg/kg/injection, schedule: Q04DX002 (ip), vehicle: saline 96 % of control | [3] 101 % of control and 102 % of control | dose: 100.0 mg/kg/injection, schedule: Q04DX003 (ip), vehicle: saline 96 % of control and 103 % of control

O=c1[nH]nnc2nc(Cc3ccc([N+](=O)[O-])cc3)[nH]c12
inactive: dose: 100.0 mg/kg/injection, schedule: Q01DX001 (ip), vehicle: saline with Tween-80 98 % of control

O=C1CCc2nc(=O)c3c4ccccc4ccc3n21
inactive: [1] 94 % of control | [5] 100 % of control | [7] 99 % of control

OC(c1ccccc1)(c1ccccc1)C(c1ccccc1)c1ccccc1
inactive: dose: 100.0 mg/kg/injection, schedule: Q04DX003 (ip), vehicle: acetone 93 % of control | dose: 200.0 mg/kg/injection, schedule: Q04DX003 (ip), vehicle: acetone 97 % of control | dose: 400.0 mg/kg/injection, schedule: Q04DX003 (ip), vehicle: acetone 87 % of control

c1ccc(Sc2ccc3ccccc3c2)cc1
inactive: [2] 103 % of control | [9] 97 % of control | [10] 93 % of control

Cc1cc([N+](=O)[O-])c2ccccc2c1N
inactive: [2] 117 % of control | [9] 98 % of control | [10] 105 % of control

O=[N+]([O-])c1nccn1C1OC(CO)C(O)C1O (stereo not drawn)
inactive: [14] 98 % of control | [15] 98 % of control | [16] 102 % of control | [17] 102 % of control

CC[CH2][Ge]([CH2]CC)([CH2]CC)[O][Ge]([CH2]CC)([CH2]CC)[CH2]CC
inactive: dose: 50.0 mg/kg/injection, schedule: Q01DX001 (ip), vehicle: carboxymethylcellulose (CMC) 96 % of control | [14] 95 % of control | dose: 100.0 mg/kg/injection, schedule: Q01DX001 (ip), vehicle: carboxymethylcellulose (CMC) 100 % of control | [15] 101 % of control | dose: 200.0 mg/kg/injection, schedule: Q01DX001 (ip), vehicle: carboxymethylcellulose (CMC) 100 % of control | [16] 104 % of control | dose: 400.0 mg/kg/injection, schedule: Q01DX001 (ip), vehicle: carboxymethylcellulose (CMC) 105 % of control

COc1c(OC)c2c3c(c(-c4c(C)cc5c(C(C)C)c(OC)c(OC)c6c5c4OC6=O)c(C)cc3c1C(C)C)OC2=O
inactive: dose: 75.0 mg/kg/injection, schedule: Q04DX003 (ip), vehicle: Klucel (hydroxypropylcellulose) (HPC) 105 % of control | dose: 150.0 mg/kg/injection, schedule: Q04DX003 (ip), vehicle: Klucel (hydroxypropylcellulose) (HPC) 92 % of control | dose: 300.0 mg/kg/injection, schedule: Q04DX003 (ip), vehicle: Klucel (hydroxypropylcellulose) (HPC) 92 % of control

O=P1(CCc2ccc(Br)cc2)CC(Br)C(Br)C1 (stereo not drawn)
inactive: [3] 104 % of control | [6] 106 % of control | [8] 96 % of control

Cc1cccc(NC(=O)NC2CCCCC2)c1C
inactive: dose: 100.0 mg/kg/injection, schedule: Q04DX002 (ip), vehicle: Klucel (hydroxypropylcellulose) (HPC) 111 % of control | dose: 200.0 mg/kg/injection, schedule: Q04DX002 (ip), vehicle: Klucel (hydroxypropylcellulose) (HPC) 99 % of control | dose: 400.0 mg/kg/injection, schedule: Q04DX002 (ip), vehicle: Klucel (hydroxypropylcellulose) (HPC) 86 % of control

O=C1OC2C(Br)CC(Br)CC2C=C1c1ccc([N+](=O)[O-])cc1 (stereo not drawn)
inactive: dose: 100.0 mg/kg/injection, schedule: Q04DX002 (ip), vehicle: saline with Tween-80 90 % of control | dose: 200.0 mg/kg/injection, schedule: Q04DX002 (ip), vehicle: saline with Tween-80 90 % of control | dose: 400.0 mg/kg/injection, schedule: Q04DX002 (ip), vehicle: saline with Tween-80 93 % of control

CCCCCCCCN(c1ccc(C#N)cc1)S(=O)(=O)c1ccc(C)cc1
inactive: dose: 75.0 mg/kg/injection, schedule: Q01DX009 (ip), vehicle: Klucel (hydroxypropylcellulose) (HPC) 92 % of control | dose: 150.0 mg/kg/injection, schedule: Q01DX009 (ip), vehicle: Klucel (hydroxypropylcellulose) (HPC) 87 % of control | dose: 300.0 mg/kg/injection, schedule: Q01DX009 (ip), vehicle: Klucel (hydroxypropylcellulose) (HPC) 97 % of control

O=[N+]([O-])/C=C\c1ccc2c(c1)OCO2
inactive: [11] 87 % of control and 103 % of control | [12] 89 % of control and 100 % of control | [15] 106 % of control | [13] 103 % of control | [3] 102 % of control | [16] 119 % of control | [6] 97 % of control | [17] 97 % of control
